Measurements from patent publication US10233191B2, “Fused piperidine amides as modulators of ion channels” (Vertex Pharmaceuticals Incorporated, priority 2013, dated 2019).

Target: T1, NaV 1.7 (Homo sapiens, UniProt Q15858)
T1 construct: expressed in transfected cells; host or cells: HEK cells
Experiment: E-VIPR optical membrane potential assay with electrical stimulation
Format: cell-based
Settings: active against one or more sodium channels; assay/subtype not specified in Table 4; read-out: IC50 Binned Activity Data
Outline: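 HEK cells expressing human NaV1.7, loaded with CC2-DMPE/DiSBAC6(3) FRET dyes, then exposed to compounds for 20-35 min at room temperature (0.625% DMSO). Electrical stimulation applied for 9 s with 400 Hz scanning. Read-out is the background-subtracted 460/580 nm emission ratio, normalized.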

T1 sequence (Q15858 whole entry): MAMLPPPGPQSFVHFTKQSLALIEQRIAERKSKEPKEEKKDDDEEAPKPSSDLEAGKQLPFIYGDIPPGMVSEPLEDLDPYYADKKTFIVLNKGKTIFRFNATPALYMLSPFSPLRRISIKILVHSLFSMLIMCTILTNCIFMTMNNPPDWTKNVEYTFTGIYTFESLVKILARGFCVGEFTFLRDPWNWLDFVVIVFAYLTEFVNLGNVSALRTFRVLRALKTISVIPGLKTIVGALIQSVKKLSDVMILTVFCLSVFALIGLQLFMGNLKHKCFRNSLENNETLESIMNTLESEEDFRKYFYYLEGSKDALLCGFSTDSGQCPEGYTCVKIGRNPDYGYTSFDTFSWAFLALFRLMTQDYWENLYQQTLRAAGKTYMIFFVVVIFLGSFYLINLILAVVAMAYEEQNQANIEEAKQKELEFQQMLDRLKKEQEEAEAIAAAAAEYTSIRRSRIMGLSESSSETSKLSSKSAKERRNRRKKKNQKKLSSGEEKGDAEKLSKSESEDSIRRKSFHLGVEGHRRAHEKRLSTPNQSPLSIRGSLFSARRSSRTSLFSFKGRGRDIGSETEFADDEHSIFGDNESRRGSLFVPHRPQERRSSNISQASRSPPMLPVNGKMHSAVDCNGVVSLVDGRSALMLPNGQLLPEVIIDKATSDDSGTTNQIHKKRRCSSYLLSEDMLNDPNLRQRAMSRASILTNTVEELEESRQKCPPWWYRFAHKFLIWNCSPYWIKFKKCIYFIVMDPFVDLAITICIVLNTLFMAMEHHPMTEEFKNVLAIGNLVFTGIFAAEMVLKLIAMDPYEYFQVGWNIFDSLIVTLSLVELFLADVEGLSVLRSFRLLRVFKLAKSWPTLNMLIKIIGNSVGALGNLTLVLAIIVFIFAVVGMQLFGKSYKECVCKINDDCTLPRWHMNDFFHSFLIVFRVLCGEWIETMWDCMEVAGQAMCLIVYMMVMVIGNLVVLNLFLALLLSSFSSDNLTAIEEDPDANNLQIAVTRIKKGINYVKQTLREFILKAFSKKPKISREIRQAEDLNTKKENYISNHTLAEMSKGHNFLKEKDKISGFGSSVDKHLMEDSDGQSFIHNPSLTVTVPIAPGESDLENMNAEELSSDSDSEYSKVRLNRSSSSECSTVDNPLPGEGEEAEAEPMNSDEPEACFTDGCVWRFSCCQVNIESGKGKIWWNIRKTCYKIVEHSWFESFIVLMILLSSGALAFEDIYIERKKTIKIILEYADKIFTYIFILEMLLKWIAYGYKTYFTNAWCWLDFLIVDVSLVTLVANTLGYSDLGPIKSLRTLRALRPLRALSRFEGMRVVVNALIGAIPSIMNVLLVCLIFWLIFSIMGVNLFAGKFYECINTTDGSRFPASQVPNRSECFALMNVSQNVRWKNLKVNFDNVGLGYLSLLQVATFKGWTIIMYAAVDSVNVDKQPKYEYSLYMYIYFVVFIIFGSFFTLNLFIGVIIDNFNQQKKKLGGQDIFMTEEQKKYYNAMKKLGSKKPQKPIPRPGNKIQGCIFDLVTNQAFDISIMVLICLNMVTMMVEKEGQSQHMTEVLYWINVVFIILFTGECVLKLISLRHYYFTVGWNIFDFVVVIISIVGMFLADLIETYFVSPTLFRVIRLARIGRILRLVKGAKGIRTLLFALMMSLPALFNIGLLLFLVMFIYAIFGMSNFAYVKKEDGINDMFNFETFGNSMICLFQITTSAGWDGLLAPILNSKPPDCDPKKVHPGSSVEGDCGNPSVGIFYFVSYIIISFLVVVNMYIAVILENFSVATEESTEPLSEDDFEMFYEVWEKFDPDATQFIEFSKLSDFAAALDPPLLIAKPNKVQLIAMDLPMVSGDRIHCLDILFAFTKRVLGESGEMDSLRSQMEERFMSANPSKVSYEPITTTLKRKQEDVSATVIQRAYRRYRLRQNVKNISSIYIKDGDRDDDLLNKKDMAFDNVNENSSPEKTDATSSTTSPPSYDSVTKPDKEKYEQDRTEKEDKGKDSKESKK

SMILES	IC50
[2H]C1([2H])OC2CN(C(=O)c3ccc(OCC4CC(F)(F)C4)c(OC)n3)CC[C@]2(c2cccc(F)c2)O1 (stereo partly shown) [Compound 279]	≤ 2 µM
COc1cc(C(=O)N2CC[C@]3(c4cccc(Cl)c4)OCOC3C2)ccc1OCCOC(F)(F)F (stereo partly shown) [Compound 283]	≤ 2 µM
[2H]C1([2H])OC2CN(C(=O)c3ccc(OCC4CCC4)c(OC)n3)CC[C@]2(c2cccc(F)c2)O1 (stereo partly shown) [Compound 284]	≤ 2 µM
COc1nc(C(=O)N2CC[C@]3(c4cc(F)ccc4F)OCOC3C2)ccc1OCCOC(F)(F)F (stereo partly shown) [Compound 289]	≤ 2 µM
COc1cc(C(=O)N2CC[C@]3(c4cccc(C#N)c4)OCOC3C2)ccc1OCC1CC(F)(F)C1 (stereo partly shown) [Compound 291]	≤ 2 µM
COc1nc(C(=O)N2CC[C@]3(c4cccc(C#N)c4)OCOC3C2)ccc1OCCOC(F)(F)F (stereo partly shown) [Compound 292]	≤ 2 µM
COc1cc(C(=O)N2CC[C@]3(c4cccc(C#N)c4)OCOC3C2)ccc1OCCOC(F)(F)F (stereo partly shown) [Compound 293]	≤ 2 µM
O=C(c1cnc(OCCOC(F)(F)F)c(Cl)c1)N1CC[C@]2(c3ccccn3)OCOC2C1 (stereo partly shown) [Compound 294]	≤ 2 µM
O=C(c1cnc(OCCOC(F)(F)F)c(Cl)c1)N1CCC2(c3ccc(F)cc3)CC2C1 (stereo not shown) [Compound 296]	2 to 5 µM
COc1cc(C(=O)N2CCC3(c4ccc(F)cc4)CC3C2)ccc1OCC1CC(F)(F)C1 (stereo not shown) [Compound 298]	≤ 2 µM
COc1nc(C(=O)N2CCC3(c4ccc(F)cc4)CC3C2)ccc1OCCOC(F)(F)F (stereo not shown) [Compound 299]	≤ 2 µM
O=C(c1ccc(OCCOC(F)(F)F)c(Cl)c1)N1CCC2(c3ccc(F)cc3)CC2C1 (stereo not shown) [Compound 301]	≤ 2 µM
[2H]C1([2H])OC2CN(C(=O)c3ccc(OCCOC(F)(F)F)c(OC)c3)CC[C@]2(c2ccccc2)O1 (stereo partly shown) [Compound 302]	≤ 2 µM
[2H]C1([2H])OC2CN(C(=O)c3ccc(OCCOC(F)(F)F)c(C)n3)CC[C@]2(c2ccccn2)O1 (stereo partly shown) [Compound 303]	≤ 2 µM
[2H]C1([2H])OC2CN(C(=O)c3ccc(OCCOC(F)(F)F)c(C)n3)CC[C@]2(c2cccc(F)c2)O1 (stereo partly shown) [Compound 306]	≤ 2 µM
[2H]C1([2H])O[C@@H]2CN(C(=O)c3ccc(OC(C)C(F)(F)F)c(OC)c3)CC[C@]2(c2cccc(F)c2)O1 (stereo partly shown) [Compound 307]	≤ 2 µM
[2H]C1([2H])OC2CN(C(=O)c3ccc(OCCOC(F)(F)F)c(C)n3)CC[C@]2(c2cc(F)cc(F)c2)O1 (stereo partly shown) [Compound 308]	≤ 2 µM
CC(F)(F)COc1ccc(C(=O)N2CC[C@]3(c4ccccn4)OCOC3C2)cc1C(F)(F)F (stereo partly shown) [Compound 313]	2 to 5 µM

Further lines, results first:

IC50	SMILES
≤ 2 µM	COc1cc(C(=O)N2CC[C@@]3(c4ccccn4)COCC3C2)ccc1OCCOC(F)(F)F (stereo partly shown) [Compound 278]
≤ 2 µM	[2H]C1([2H])OC2CN(C(=O)c3ccc(OCC4CC(F)(F)C4)c(OC)n3)CC[C@]2(c2cc(F)cc(F)c2)O1 (stereo partly shown) [Compound 280]
≤ 2 µM	COc1nc(C(=O)N2CC[C@]3(c4cccc(F)c4F)OCOC3C2)ccc1OCC1CC(F)(F)C1 (stereo partly shown) [Compound 281]
≤ 2 µM	COc1cc(C(=O)N2CC[C@]3(c4cccc(F)c4F)OCOC3C2)ccc1OCCC(F)(F)F (stereo partly shown) [Compound 282]
≤ 2 µM	COc1cc(C(=O)N2CCC3(c4ccccn4)CC3C2)ccc1OCCOC(F)(F)F (stereo not shown) [Compound 285]
≤ 2 µM	COc1cc(C(=O)N2CC[C@]3(c4cc(F)ccc4F)OCOC3C2)ccc1OC(C)C(F)(F)F (stereo partly shown) [Compound 286]
≤ 2 µM	COc1cc(C(=O)N2CC[C@]3(c4cc(F)ccc4F)OCOC3C2)ccc1OCCC(F)(F)F (stereo partly shown) [Compound 287]
≤ 2 µM	COc1cc(C(=O)N2CC[C@]3(c4cc(F)ccc4F)OCOC3C2)ccc1OCC1CC(F)(F)C1 (stereo partly shown) [Compound 288]
> 5 µM	COc1cc(C(=O)N2CC[C@]3(c4cccc(C#N)c4)OCOC3C2)ccc1OC(C)C(F)(F)F (stereo partly shown) [Compound 290]
≤ 2 µM	O=C(c1cnc(OCCOC(F)(F)F)c(Cl)c1)N1CC[C@]2(c3ccccc3)OCOC2C1 (stereo partly shown) [Compound 295]
> 5 µM	COc1cc(C(=O)N2CCC3(c4ccc(F)cc4)CC3C2)ccc1OC(C)C(F)(F)F (stereo not shown) [Compound 297]
≤ 2 µM	COc1cc(C(=O)N2CCC3(c4ccc(F)cc4)CC3C2)ccc1OCCOC(F)(F)F (stereo not shown) [Compound 300]
≤ 2 µM	[2H]C1([2H])OC2CN(C(=O)c3ccc(OCCOC(F)(F)F)c(Cl)c3)CC[C@]2(c2ccccn2)O1 (stereo partly shown) [Compound 304]
≤ 2 µM	[2H]C1([2H])OC2CN(C(=O)c3ccc(OCCOC(F)(F)F)c(OC)c3)CC[C@]2(c2ccccn2)O1 (stereo partly shown) [Compound 305]
≤ 2 µM	[2H]C1([2H])OC2CN(C(=O)c3ccc(OCCOC(F)(F)F)c(OC)n3)CC[C@]2(c2cc(F)cc(F)c2)O1 (stereo partly shown) [Compound 309]
≤ 2 µM	COc1cc(C(=O)N2CC[C@]3(c4ccccn4)OC(C)(C)OC3C2)ccc1OCCOC(F)(F)F (stereo partly shown) [Compound 310]
≤ 2 µM	CC(Oc1ccc(C(=O)N2CC[C@]3(c4ccccn4)OCOC3C2)cc1C(F)(F)F)C(F)(F)F (stereo partly shown) [Compound 311]
≤ 2 µM	O=C(c1ccc(OCC2CC(F)(F)C2)c(C(F)(F)F)c1)N1CC[C@]2(c3ccccn3)OCOC2C1 (stereo partly shown) [Compound 312]
≤ 2 µM	COc1cc(C(=O)N2CC[C@]3(c4cccc(OCC(C)C)n4)OCOC3C2)ccc1OCCOC(F)(F)F (stereo partly shown) [Compound 314]
